In patent US7294509B2, “Pre-adipose cell lines” (Nestec S.A., priority 2000, dated 2007):

What was measured:
Type in all cases: cell-based, human
Chub-S7 cells [1] = experiment: Adipocyte marker gene expression by real-time RT-PCR during Chub-S7 cell differentiation; settings: for LPL mRNA fold-increase / aP2 mRNA fold-increase: day 17 as compared to day 0, 1 μM Dex alone or with 1 μM BRL49653 from day 3
Description: Adipocyte differentiation of Chub-S7 cells was tested under serum-free culture conditions. To promote pre-adipocyte differentiation, confluent cells were incubated with a basal medium (see Material and Methods) supplemented with 500 μM IBMX and 1 μM Dex for the first 3 days, and 1 μM of a PPARγ agonist (BRL49653) and 1 μM Dex from day 3 to 17. This condition was compared to the basal medium alone or supplemented with Dex plus IBMX from day 0 to 3 and Dex alone from day 3 to 17. To determine whether Chub-S7 cells were able to differentiate, the expression of adipocyte markers was assessed, by real-time RT-PCR, at different time points during cellular maturation. These markers included i) transcriptional factors involved in adipogenesis such as peroxisome proliferator-activated receptor γ (PPARγ) and CAAT/enhancer binding protein α (C/EBPα), ii) genes involved in lipid metabolism such as lipoprotein lipase (LPL) and adipocyte fatty acid binding protein (aP2), and finally iii) adipocyte secreted factors such as adipsin and leptin.
Chub-S7 cells were cultured from day 0 to 17 in the presence of the basal medium as defined in Material and Methods (m), or in the basal medium with 1 μM Dex plus 500 μM IBMX from day 0 to 3 and dexamethasone from day 3 to 17 (●) or supplemented with 1 μM BRL49653 (▪). The arrow indicates the day from which BRL49653 was added to the medium. Relative gene expression was quantified by real-time RT-PCR. Data are the means±SEM of values obtained at least in four separate experiments. […] Top panels show representative RT-PCRs performed at a number of cycle defined according to the linear amplification of the genes (see Material and Methods).
Cells were grown in a mixture of DMEM/F12 media supplemented with 10% FBS, 2 mM glutamine, 100 U/ml penicillin/streptamycin until confluency. For differentiation, cells were washed with PBS and cultured with a serum-free medium consisting of a mixture of DMEM/F12 media supplemented with 15 mM NaHCO3, 17 μM D-panthotenic acid, 15 mM Hepes, 33 μM biotin, 10 μg/ml transferrin, 1 nM triiodothyronin, 850 nM insulin and 500 μg/ml fetuin. This medium, referred to “basal medium” was supplemented with 1 μM dexamethasone (Dex) and 500 μM IBMX from day 0 to 3. Dex was maintained alone or with 1 μM BRL49653 from day 3 to 17 in order to promote differentiation. As stated in Results, oleic acid (OA) complexed with bovine serum albumin (BSA; ratio OA-to-BSA: 5: 1) was added to the medium containing BRL49653 from day 10 to 17. Lipid accumulation in differentiated cells was visualized by Oil red O staining as previously described (22). All the experiments on Chub-S7 cell characterization were performed between passages 18 and 32 (69 to 122 population doublings).
RNAs from Chub-S7 cells cultured from day 0 to 17 were extracted using the NucleoSpin® Total RNA Purification System (Macherey-Nagel, Oensingen Switzerland). Reverse transcription was performed with an input of 10 μg of total RNA using the 1st strand cDNA synthesis kit for RT-PCR (AMV; Roche Biomedical, Basel, Switzerland) with oligo d(T)15 as primer. Real-time reverse transcription-polymerase chain reaction analyses were performed in a fluorescent temperature cycler (GeneAmp® PCR 5700 Sequence Detection System; Applied Biosystem) according to the recommendations of the manufacturer. Briefly, after initial denaturation at 50° C. for 2 min and 95° C. for 10 min, reactions were cycled 40 times using the following parameters for all genes studied: 95° C. for 15s, primer annealing and extension at 60° C. for 1 min. SYBR Green I fluorescence was detected at the end of each cycle to monitor the amount of PCR product formed during that cycle. Primers used for the amplification of cDNAs of interest were synthesized by Mycrosynth (Windisch, Switzerland).
Cycle to cycle fluorescence emission was monitored and quantified using the GenAmp software provided by Applied Biosystem. […]

Chub-S7 cells [2] = experiment: Triglyceride accumulation in differentiated Chub-S7 cells (Oil red O staining); settings: 100 μM OA complexed with BSA, day 10 to 17, in differentiation medium containing BRL49653
Description: To study the ability of differentiated Chub-S7 cells to accumulate intracellular lipids, cells cultured for 17 days in the absence or in the presence of BRL49653 were fixed and stained with Oil-red O. Almost all the differentiated cells were able to accumulate at least one single lipid droplet and few of them presented large multilocular droplets (FIG. 10B).
Chub-S7 cells were grown in the presence of the basal medium with 1 μM dexamethasone plus 500 μM IBMX from day 0 to 3 and Dex from day 3 to 17 or supplemented with 1 μM BRL49653 alone or in the presence of 100 μM OA from day 10 to 17. At day 17, cells were fixed and triglycerides were visualized using the oil-red O staining. A: Staining of culture wells containing Chub-S7 cells differentiated under the conditions described above. B: Morphology of Chub-S7 cells differentiated with dexamethasone and BRL49653 or in the same medium supplemented with oleate (Magnitude 400×). Data are representative of at least 3 independent experiments.
Cells were grown in a mixture of DMEM/F12 media supplemented with 10% FBS, 2 mM glutamine, 100 U/ml penicillin/streptamycin until confluency. […]

Chub-S7 cells [3] = experiment: Lipolysis (glycerol release) in differentiated Chub-S7 cells; settings: 1 μM isoproterenol, 1 h; day 17; cells differentiated with BRL49653
Description: Lipolytic capacity of differentiated cells was assessed by measuring glycerol release, after stimulation or not for 1 h with 1 μM isoproterenol (Iso), a non-specific β-adrenergic agonist. Cells were differentiated in the presence of BRL49653 alone.
A. Chub-S7 cells were differentiated in the presence of 1 μM Dex plus 500 μM IBMX from day 0 to 3 and dexamethasone plus 1 μM BRL49653 from day 3 to 17. Glycerol released in the medium was measured in the presence or in the absence of 1 μM isoproterenol. Data are the means of values obtained at least in four separate experiments. […] B. Chub-S7 cells were cultured from day 0 to 17 in the presence of the basal medium (m), or in the basal medium with 1 μM Dex plus 500 μM IBMX from day 0 to 3 and Dex from day3 to 17 (●) or supplemented with 1 μM BRL49653 (▪). Data are the means±SEM of values obtained at least in four separate experiments.
(iv) Glycerol-3-phosphate dehydrogenase activity and lipolysis measurements Glycerol-3-phosphate dehydrogenase (GPDH) activity measured at different times during the differentiation process of Chub-S7 cells was determined using the enzymatic assay previously described (23). Lipolysis was determined at day 17 after confluency. […] Glycerol released in the medium was measured using the glycerokinase enzymatic radiometric assay described by Bradley and Kaslow (24).

Row | Compound | LPL mRNA fold-increase (Chub-S7 cells [1]) | aP2 mRNA fold-increase (Chub-S7 cells [1]) | also measured
1 | CCCCCCCC/C=C\CCCCCCCC(=O)O [OA, oleic acid] | – | – | expression of LPL, C/EBPα, aP2, leptin and adipsin induced by BRL49653 (Chub-S7 cells [1]; 100 μM OA day 10 to 17, data not shown): did not affect; triglyceride content (Chub-S7 cells [2]): dramatic increase
2 | CC(C)NCC(O)c1ccc(O)c(O)c1 (centres unmarked) [Iso, isoproterenol] | – | – | increase in lipolysis (glycerol release) (Chub-S7 cells [3]): 40.5%
3 | CN(CCOc1ccc(CC2SC(=O)NC2=O)cc1)c1ccccn1 (centres unmarked) [BRL49653] | 308 fold-increase | 8372 fold-increase | leptin mRNA, higher in presence of BRL49653 compared to Dex alone (Chub-S7 cells [1]; day 17, 1 μM BRL49653): 2 fold
4 | C[C@@H]1C[C@H]2[C@@H]3CCC4=CC(=O)C=C[C@]4(C)[C@@]3(F)[C@@H](O)C[C@]2(C)[C@@]1(O)C(=O)CO [Dex, Dexamethasone] | 16 fold-increase | 8 fold-increase | –
